{"source": "patent US11815508B2", "about": "“Dynamic BH3 profiling” (Dana-Farber Cancer Institute, Inc., priority 2012, dated 2023)", "type_in_all_cases": "cell-based, human", "key": {"SuDHL4 cell line": {"tested_on": "SuDHL4 cell line", "experiment": "miBH3 profile of the SuDHL4 cell line", "conditions": "response to BH3 peptides", "procedure": "FIGS. 14A-14B are a series of bar graphs showing the correlation of miBH3 profiles with known profiles.\nDynamic BH3 profiling can be accomplished at the single cell level by immobilizing cells on a solid surface. Optionally the solid surface is polyamine or poly-lysine coated. Immobilized cells are permeabilized as described above. The cells are then contacted with BH3 peptides and/or test agents. After the cells have been treated for a predetermined period of time such as 45-90 minutes, the cells are fixed and permeabilized by methods known in the art. For example the cells are fixed with formaldehyde and further permeabilized with methanol or triton x-100. Outer membrane permeabilization is determined intracellular staining for molecules from the mitochondrial inter-membrane space and a mitrochondrial marker. Examples of molecules that can be measured include cytochrome c and SMAC/Diablo, Omi, adenylate kinase-2 or apoptotic-inducing factor (AIF). Mitochondrial markers include MnSOD. Stained cells can be counterstained with nuclear stains such as DAPI. Optionally other intracellular and extracellular markers can be measured. Analysis of the cells can be manually accomplished using a microscope or automated for example by using software such as Cellprofiler to locate nuclei.\nMicroBH3 (miBH3) is a BH3 profiling method where the measurement of the mitochondrial effect of BH3 peptides have on individual cells by microscopy. To accomplish this, cells are immobilized on polyamine or poly-lysine coated surfaces and treated with low concentrations of digitonin in a mitochondrial buffer to permeabilize the plasma membrane and grant access to the mitochondria without cell disruption. […] Fixed cells by this method can be readily stopped at the fixation step and can be analyzed weeks after acquisition as well as readily re-analyzed if needed."}, "PC9": {"tested_on": "PC9", "experiment": "Dynamic BH3 profiling, NSCLC cell line PC9", "conditions": "gefitinib 1 μM, WZ4002 100 nM, 16 hours; BH3 peptide Bim at low concentrations", "procedure": "(§1) In various methods, sensitivity of a cell to an agent is determined. The methods include contacting a test cell with a test agent. Cell sensitivity to the test agent is determined by contacting the test cell or test cellular component (e.g., mitochondria) exposed to the test agent with standardized concentration of a panel of BH3 domain peptide from the pro-apoptotic BCL-2 family. […] The cell or cellular component is a cancer cell or a cell that is suspected of being cancerous. The cell is permeabilized to permit the BH3 peptides access to the mitochondria. Cells are permeabilized by methods known in the art. For example, the cell are permeabilized by contacting the cell with digitonin, or other art-recognized detergents and cell-permeabilization agents. After the cells are permeabilized the cells are treated with the BH3 peptides or test agents. After the cell is treated, mitochondrial outer membrane permeabilization is measured. Outer membrane permeabilization is measured by a number of methods. For example outer membrane permeabilization is measured by loss of mitochondrial membrane potential. Loss of mitochondrial membrane potential is measured for example by treating the cells with a potentiometric or radiometric dye. Three different cell lines were used: PC9, PC9 gefitinib resistant (PC9GR, including the mutation T790M) and PC9GR resistant to WZ4002 (PC9WZR). […]"}, "PC9GR": {"tested_on": "PC9GR", "experiment": "Dynamic BH3 profiling, PC9 gefitinib resistant", "conditions": "gefitinib 1 μM, WZ4002 100 nM, 16 hours; BH3 peptide Bim at low concentrations", "procedure": "as §1"}, "PC9WZR": {"tested_on": "PC9WZR", "experiment": "Dynamic BH3 profiling, PC9GR resistant to WZ4002", "conditions": "gefitinib 1 μM, WZ4002 100 nM, 16 hours; BH3 peptide Bim at low concentrations", "procedure": "as §1"}, "K562 [1]": {"tested_on": "K562", "experiment": "Dynamic BH3 profiling, K562 cells", "conditions": "for change in depolarization caused by the BIM BH3 peptide following drug treatment: drug exposure 16 hours", "procedure": "(§2) The change in depolarization caused by the BIM BH3 peptide following drug treatment is shown. […] Imatinib is a positive control.\n(§3) In various methods, sensitivity of a cell to an agent is determined. The methods include contacting a test cell with a test agent. Cell sensitivity to the test agent is determined by contacting the test cell or test cellular component (e.g., mitochondria) exposed to the test agent with standardized concentration of a panel of BH3 domain peptide from the pro-apoptotic BCL-2 family.\n(§4) The cell or cellular component is a cancer cell or a cell that is suspected of being cancerous. The cell is permeabilized to permit the BH3 peptides access to the mitochondria. Cells are permeabilized by methods known in the art. For example, the cell are permeabilized by contacting the cell with digitonin, or other art-recognized detergents and cell-permeabilization agents.\n(§5) After the cells are permeabilized the cells are treated with the BH3 peptides or test agents. After the cell is treated, mitochondrial outer membrane permeabilization is measured. Outer membrane permeabilization is measured by a number of methods. For example outer membrane permeabilization is measured by loss of mitochondrial membrane potential. Loss of mitochondrial membrane potential is measured for example by treating the cells with a potentiometric or radiometric dye."}, "K562 [2]": {"tested_on": "K562", "experiment": "Cell death by Annexin V/PI, K562 cells", "conditions": "drug exposure 72 hours"}, "Ku812 [3]": {"tested_on": "Ku812", "experiment": "Dynamic BH3 profiling, Ku812 cells", "procedure": "as §2, §3, §4, §5"}, "Ku812 [4]": {"tested_on": "Ku812", "experiment": "Cell death, Ku812 cells"}}}
{"compound": "LWAAQRYGRELRRMSDEFEGSFKGL [BAD]", "values": [{"measurement": "release of cytochrome c and loss of correlation between cytochrome c and MnSOD channels", "setting": "SuDHL4 cell line", "result": "Release of cytochrome c and loss of correlation"}]}
{"compound": "EQWAREIGAQLRRMADDLNA [PUMA]", "values": [{"measurement": "release of cytochrome c and loss of correlation between cytochrome c and MnSOD channels", "setting": "SuDHL4 cell line", "result": "Release of cytochrome c and loss of correlation"}]}
{"compound": "C=CC(=O)Nc1cccc(Oc2nc(Nc3ccc(N4CCN(C)CC4)cc3OC)ncc2Cl)c1", "note": "[WZ4002]", "values": [{"measurement": "sensitivity (change in priming) by dynamic BH3 profiling", "setting": "PC9", "result": "sensitive"}, {"measurement": "sensitivity (change in priming) by dynamic BH3 profiling", "setting": "PC9GR", "result": "sensitive"}, {"measurement": "sensitivity (change in priming) by dynamic BH3 profiling", "setting": "PC9WZR", "result": "insensitive"}]}
{"compound": "COc1cc(N2CCC(N3CCN(C)CC3)CC2)ccc1Nc1ncc(Cl)c(Nc2ccccc2S(=O)(=O)C(C)C)n1", "note": "[TAE-684]", "values": [{"measurement": "change in depolarization caused by the BIM BH3 peptide following drug treatment", "setting": "K562 [1]", "result": "significant changes"}, {"measurement": "cell death response (Annexin V/PI)", "setting": "K562 [2]", "result": "unexpected killing"}]}
{"compound": "Cn1c(=O)n(-c2ccc(C(C)(C)C#N)cc2)c2c3cc(-c4cnc5ccccc5c4)ccc3ncc21", "note": "[BEZ235]", "values": [{"measurement": "change in depolarization caused by the BIM BH3 peptide following drug treatment", "setting": "K562 [1]", "result": "significant changes"}, {"measurement": "cell death response (Annexin V/PI)", "setting": "K562 [2]", "result": "unexpected killing"}]}
{"compound": "Cc1ccc(NC(=O)c2ccc(CN3CCN(C)CC3)cc2)cc1Nc1nccc(-c2cccnc2)n1", "note": "[imatinib]", "values": [{"measurement": "change in depolarization caused by the BIM BH3 peptide following drug treatment", "setting": "K562 [1]", "result": "significant changes"}, {"measurement": "priming, several BH3 peptides", "setting": "K562 [1]; imatinib 1 μM, 16 h and 8 h", "result": "increase in priming"}, {"measurement": "priming, several BH3 peptides", "setting": "Ku812 [3]; imatinib 1 μM, 16 h and 8 h", "result": "increase in priming"}, {"measurement": "cell death", "setting": "Ku812 [4]", "result": "induce cell death"}]}
{"compound": "COc1cc2ncnc(Nc3ccc(F)c(Cl)c3)c2cc1OCCCN1CCOCC1", "note": "[gefitinib]", "values": [{"measurement": "sensitivity (change in priming) by dynamic BH3 profiling", "setting": "PC9", "result": "sensitive"}, {"measurement": "sensitivity (change in priming) by dynamic BH3 profiling", "setting": "PC9GR", "result": "insensitive"}, {"measurement": "sensitivity (change in priming) by dynamic BH3 profiling", "setting": "PC9WZR", "result": "insensitive"}]}
{"compound": "Cc1sc2c(c1C)C(c1ccc(Cl)cc1)=N[C@@H](CC(=O)OC(C)(C)C)c1nnc(C)n1-2", "note": "[JQ1]", "values": [{"measurement": "priming by dynamic BH3 profiling", "setting": "Ku812 [3]; epigenetic modifying agents, imatinib positive control", "result": "increases priming"}, {"measurement": "cell death", "setting": "Ku812 [4]", "result": "induce cell death"}]}
{"compound": "HQAEVQIARKLQLIADQFHR [BMF]", "values": [{"measurement": "release of cytochrome c and loss of correlation between cytochrome c and MnSOD channels", "setting": "SuDHL4 cell line", "result": "Release of cytochrome c and loss of correlation"}]}
